According to patent US11013735B2, “Specific Akt3 inhibitor and uses thereof” (Augusta University Research Institute, Inc., priority 2016, dated 2021):

Legend:
Akt3 = molecular target: T1, Akt3 (Mus musculus, UniProt Q9WUA6); test: Immunoblot of Akt3 phosphorylation (pAkt3) in activated nTregs; assay type: cell-based, WT C57BL/6J (foxp3-GFP) mice; conditions: nTregs on anti-CD3 with IL2 and anti-CD28, different concentrations of inhibitor, 72 hrs
T1 construct: nTreg cell lysates prepared on day 3 (72 hrs) of treatment were separated by SDS-PAGE and immunoblotted; endogenous in cells; host or cells: FACS-sorted primary nTregs from WT C57BL/6J (foxp3-GFP) mice
Experimental: (§1) FACS-sorted natural regulatory T cells (nTregs), from WT C57BL/6J (foxp3-GFP) mice were plated on anti-CD3-coated plates and cultured in activation media (IL2 and anti-CD28) without inhibitors (Stimulated) and with different concentrations of inhibitor 4-[(6-nitroquinolin-4-yl)amino]-N-[4-(pyridin-4-ylamino)phenyl]benzamide (also referred to as JJ64-E) for 72 hrs. For negative control (Non-stimulated-NS) cells were left in media containing IL-2 for 72 hrs. nTreg cell lysates prepared on day 3 (72 hrs) of treatment were separated by SDS-PAGE and immunoblotted with specific antibodies (pAkt1) or pAkt3; actin was used as loading control.

Akt1 = molecular target: T2, Akt1 (Mus musculus, UniProt P31750); test: Immunoblot of Akt1 phosphorylation (pAkt1) in activated nTregs; assay type: cell-based, WT C57BL/6J (foxp3-GFP) mice; conditions: nTregs on anti-CD3 with IL2 and anti-CD28, different concentrations of inhibitor, 72 hrs
T2 construct: endogenous in cells; host or cells: FACS-sorted primary nTregs from WT C57BL/6J (foxp3-GFP) mice
Experimental: as §1

nTregs = test: Proliferation (level of VCT) of FACS-sorted nTregs by flow cytometry; assay type: cell-based, C57BL/6J(foxp3-GFP); conditions: anti-CD3, IL2 and anti-CD28, 72 hrs, live gated cells
Experimental: (§2) FACS-sorted nTregs, CD4+ and CD8+ T cells from C57BL/6J(foxp3-GFP) were plated on anti-CD3-coated plates and cultured in activation media (IL2 and anti-CD28) without inhibitors (Stimulated) and with inhibitors (JJ64-E) for 72 hrs. For negative control (Non-stimulated-NS) cells were left in media containing IL-2 for 72 hrs. After 72 hrs Proliferation (level of VCT) in live gated cells was measured by flow cytometry.

CD8+ T cells = test: Proliferation (level of VCT) of FACS-sorted CD8+ T cells by flow cytometry; assay type: cell-based, C57BL/6J(foxp3-GFP); conditions: anti-CD3, IL2 and anti-CD28, 72 hrs, live gated cells
Experimental: as §2

CD4+ T cells = test: Proliferation (level of VCT) of FACS-sorted CD4+ T cells by flow cytometry; assay type: cell-based, C57BL/6J(foxp3-GFP); conditions: anti-CD3, IL2 and anti-CD28, 72 hrs, live gated cells
Experimental: as §2

Tregs (CD4+Foxp3+) = test: Percentage of Tregs in vivo in TC-1 tumor model; design: species or system WT C57BL/6J mice; conditions: TC-1 tumor-bearing mice, 5 mg/kg or 10 mg/kg i.p. every day from day 10, analysed day 15
Experimental: WT C57BL/6J mice (n=3/group) were injected s.c. in the right flank with 7×10^4 TC-1 cells. Mice from appropriate groups were treated with either 5 mg/kg or 10 mg/kg of JJ64-E injected (i.p.) every day starting on day 10 after tumor implantation throughout the experiment. All groups were euthanized on day 15 of TC-1 implantation. The percentage of Tregs (CD4+Foxp3+) was analyzed by flow cytometry.
(§3) Statistical significance was determined by one-way ANOVA with Tukey's multiple comparison test (*, p<0.05; **, p<0.01; ***, p<0.001).

[1] = test system: CD8 and other (FoxP3neg) CD4 T cells; test: Percentage of CD4 and CD8 T cells in vivo in TC-1 tumor model; design: species or system WT C57BL/6 mice; conditions: TC-1 tumor-bearing mice, 5 mg/kg or 10 mg/kg i.p. everyday from day 10, day 15, spleen
Experimental: WT C57BL/6 4-6 weeks old female mice (n=5/group) were injected s.c. in the right flank with 7×10^4 TC-1 cells. Mice from appropriate groups were treated with either 5 mg/kg or 10 mg/kg of JJ64-E injected (i.p.) everyday starting on day 10 after tumor implantation throughout the experiment. All groups were euthanized on day 15 of TC-1 implantation. The percentage of CD4 and CD8 were analyzed in splenic CD4+ cells by flow cytometry.

TC-1 tumor [2] = test: TC-1 tumor growth and survival, JJ64-E alone or with vaccine; assay type: in vivo, C57BL/6 mice; conditions: i.p. every day from day 6
Experimental: C57BL/6 mice (n=5/group) were injected s.c. in the right flank with 7×10^4 TC-1 cells. Mice from appropriate groups were injected weekly with vaccine (s.c.) or DMSO 5% as a control. Mice were also treated with vaccine (weekly) along with either 10 mg/kg or 20 mg/kg of JJ64-E injected (i.p.) every day starting on day 6 after tumor implantation throughout the experiment.
FIGS. 5B and 5C are bar diagrams showing average tumor volumes of mice for each group. FIG. 5D is a Kaplan-Meier plot of the overall survival. Statistical significance was determined by Log-rank (Mantel-Cox) test.
as §3

TC-1 tumor [3] = test: TC-1 tumor growth and survival, JJ64-C alone or with vaccine; assay type: in vivo, C57BL/6 mice; conditions: i.p. every other day from day 6
Experimental: C57BL/6 mice (n=5/group) were injected s.c. in the right flank with 7×10^4 TC-1 cells. Mice from appropriate groups were injected weekly with vaccine (s.c.) or DMSO 5% as a control. Mice were also treated with vaccine (weekly) along with either 10 mg/kg or 20 mg/kg of JJ64-C (or FIG. 7A or Formula 18) injected (i.p.) every other day starting on day 6 after tumor implantation throughout the experiment.
FIGS. 7C and 7D are bar diagrams representing average tumor volumes of mice for each group. FIG. 7E is a Kaplan-Meier plot of the overall survival. Statistical significance was determined by Log-rank (Mantel-Cox) test.
as §3

[4] = test system: iTreg induction (CD4+FoxP3+ cells); test: iTreg induction from CD4+FoxP3- cells (TGF-β), flow cytometry; assay type: cell-based; conditions: anti-CD3, IL2, anti-CD28, TGF-β, 72 hrs
Experimental: FACS-sorted CD4+FoxP3− cells were plated on anti-CD3-coated plates with soluble IL2 and anti-CD28 with TGF-β (induction) Cell were induced for iTregs with JJ64-B (FIG. 6A) without inhibitor (Induction-IND)) for 72 hrs. Cells were harvested and the frequency of CD4+FoxP3+ cells was measured by flow cytometry.
FACS-sorted CD4+FoxP3− cells were plated on anti-CD3-coated plates with soluble IL2 and anti-CD28 with TGF-β (induction) Cell were induced for iTregs with JJ64-C (JJ64 modified drug C or Formula 18) or without inhibitor (Induction-IND)) for 72 hrs. Cells were harvested and the frequency of CD4+FoxP3+ cells was measured by flow cytometry.
FACS-sorted CD4+FoxP3− cells were plated on anti-CD3-coated plates with soluble IL2 and anti-CD28 with TGF-β (induction) Cell were induced for iTregs with JJ64-D (JJ64 modified drug D or FIG. 9A) or without inhibitor (Induction-IND)) for 72 hrs. Cells were harvested and the frequency of CD4+FoxP3+ cells was measured by flow cytometry.

[5] = high dose as monotherapy (10 or 20 mg/kg tested)
[6] = lower dose combined with weekly vaccine s.c. (10 or 20 mg/kg tested)
[7] = high dose as monotherapy (10 or 20 mg/kg)
[8] = lower dose combined with weekly vaccine s.c. (10 or 20 mg/kg)

T1 sequence (Q9WUA6 whole entry): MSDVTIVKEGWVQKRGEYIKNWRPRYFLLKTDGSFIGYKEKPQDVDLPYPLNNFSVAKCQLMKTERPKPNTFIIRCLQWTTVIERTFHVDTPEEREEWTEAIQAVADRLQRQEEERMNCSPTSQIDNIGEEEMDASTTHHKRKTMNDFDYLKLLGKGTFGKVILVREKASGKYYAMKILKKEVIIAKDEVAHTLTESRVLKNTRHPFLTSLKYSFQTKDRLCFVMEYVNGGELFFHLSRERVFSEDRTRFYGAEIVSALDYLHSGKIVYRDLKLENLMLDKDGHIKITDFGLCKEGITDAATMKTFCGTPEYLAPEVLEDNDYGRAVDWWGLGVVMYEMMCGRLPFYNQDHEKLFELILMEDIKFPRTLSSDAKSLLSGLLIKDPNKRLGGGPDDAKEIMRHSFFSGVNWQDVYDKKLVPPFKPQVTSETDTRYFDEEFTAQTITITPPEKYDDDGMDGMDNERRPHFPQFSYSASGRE
T2 sequence (P31750 whole entry): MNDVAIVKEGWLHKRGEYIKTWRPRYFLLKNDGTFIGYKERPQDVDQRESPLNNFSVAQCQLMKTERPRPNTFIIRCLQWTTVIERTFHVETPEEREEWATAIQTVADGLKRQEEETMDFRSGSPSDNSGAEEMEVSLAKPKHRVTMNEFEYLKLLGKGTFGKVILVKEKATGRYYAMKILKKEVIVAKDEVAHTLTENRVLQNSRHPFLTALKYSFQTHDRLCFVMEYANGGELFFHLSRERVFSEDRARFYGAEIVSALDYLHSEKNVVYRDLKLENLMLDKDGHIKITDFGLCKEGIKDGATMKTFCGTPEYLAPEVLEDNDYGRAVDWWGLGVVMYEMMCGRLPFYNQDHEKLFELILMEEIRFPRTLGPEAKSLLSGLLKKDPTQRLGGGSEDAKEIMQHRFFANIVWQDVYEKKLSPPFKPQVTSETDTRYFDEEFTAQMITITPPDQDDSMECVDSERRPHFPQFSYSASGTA

| Structure (SMILES) | Akt3 phosphorylation in Tregs (pAkt3 immunoblot) (Akt3) | Akt1 phosphorylation in Tregs (pAkt1 immunoblot) (Akt1) | Treg proliferation (level of VCT) (nTregs) | CD8 T cell proliferation (level of VCT) (CD8+ T cells) | other CD4 T cell proliferation (level of VCT) (CD4+ T cells) | percentage of Tregs (CD4+Foxp3+) in vivo (Tregs (CD4+Foxp3+)) | CD8 T cells in vivo [1] | other (FoxP3neg) CD4 T cells in vivo [1] | TC-1 tumor growth (tumor volume) (TC-1 tumor [2]; [5]) | overall survival (Kaplan-Meier) (TC-1 tumor [2]; [5]) | TC-1 tumor growth (tumor volume) (TC-1 tumor [2]; [6]) | overall survival (Kaplan-Meier) (TC-1 tumor [2]; [6]) | TC-1 tumor growth (tumor volume) (TC-1 tumor [3]; [7]) | overall survival (Kaplan-Meier) (TC-1 tumor [3]; [7]) | TC-1 tumor growth (tumor volume) (TC-1 tumor [3]; [8]) | overall survival (Kaplan-Meier) (TC-1 tumor [3]; [8]) | iTreg induction (frequency of CD4+FoxP3+ cells) [4] |
| --- | --- | --- | --- | --- | --- | --- | --- | --- | --- | --- | --- | --- | --- | --- | --- | --- | --- |
| O=C(Nc1ccc(Nc2ccncc2)cc1)c1ccc(Nc2ccnc3ccc([N+](=O)[O-])cc23)cc1 [4-[(6-nitroquinolin-4-yl)amino]-N-[4-(pyridin-4-ylamino)phenyl]benzamide] | inhibits Akt3 | not Akt1 phosphorylation | selectively inhibits Treg proliferation | sparing CD8 | sparing CD8 and other CD4 T cells | decreases Tregs in vivo | does not affect CD8 | does not affect CD8 and other (FoxP3neg) CD4 T cells | inhibits TC-1 tumor growth | prolongs the survival | inhibits TC-1 tumor growth | prolongs the survival |  |  |  |  |  |
| O=C(Nc1cccc(Nc2ccncc2)c1)c1cccc(Nc2ccnc3ccc(F)cc23)c1 [compound 18] |  |  |  |  |  |  |  |  |  |  |  |  | inhibits TC-1 tumor growth | prolongs the survival | inhibits TC-1 tumor growth | prolongs the survival | inhibits iTregs induction |
